What was measured:
Type in all cases: functional
Fusarium oxysporum [1] = test: Antifungal activity against Fusarium oxysporum f. sp. lupini at 20 ug/ml after 48 hrs
Fusarium oxysporum [2] = test: Antifungal activity against Fusarium oxysporum f. sp. lupini at 20 ug/ml after 96 hrs
Fusarium oxysporum [3] = test: Antifungal activity against Fusarium oxysporum f. sp. lupini at 20 ug/ml after 144 hrs
Fusarium oxysporum [4] = test: Antifungal activity against Fusarium oxysporum f. sp. lupini at 20 ug/ml after 192 hrs
Fusarium oxysporum [5] = test: Antifungal activity against Fusarium oxysporum f. sp. lupini at 20 ug/ml after 192 hrs relative to control; conditions: read-out: GI
Fusarium oxysporum [6] = test: Antifungal activity against Fusarium oxysporum f. sp. lupini at 1 ug/ml after 48 hrs
Fusarium oxysporum [7] = test: Antifungal activity against Fusarium oxysporum f. sp. lupini at 1 ug/ml after 96 hrs
Fusarium oxysporum [8] = test: Antifungal activity against Fusarium oxysporum f. sp. lupini at 1 ug/ml after 144 hrs
Fusarium oxysporum [9] = test: Antifungal activity against Fusarium oxysporum f. sp. lupini at 1 ug/ml after 192 hrs
Fusarium oxysporum [10] = test: Antifungal activity against Fusarium oxysporum f. sp. lupini at 1 ug/ml after 192 hrs relative to control; conditions: read-out: GI
Fusarium oxysporum [11] = test: Antifungal activity against Fusarium oxysporum f. sp. lupini at 0.5 ug/ml after 48 hrs
Fusarium oxysporum [12] = test: Antifungal activity against Fusarium oxysporum f. sp. lupini at 0.5 ug/ml after 96 hrs
Fusarium oxysporum [13] = test: Antifungal activity against Fusarium oxysporum f. sp. lupini at 0.5 ug/ml after 144 hrs
Fusarium oxysporum [14] = test: Antifungal activity against Fusarium oxysporum f. sp. lupini at 0.5 ug/ml after 192 hrs
Fusarium oxysporum [15] = test: Antifungal activity against Fusarium oxysporum f. sp. lupini at 0.5 ug/ml after 192 hrs relative to control; conditions: read-out: GI
Fusarium oxysporum [16] = test: Antifungal activity against Fusarium oxysporum f. sp. lupini at 0.1 ug/ml after 48 hrs
Fusarium oxysporum [17] = test: Antifungal activity against Fusarium oxysporum f. sp. lupini at 0.1 ug/ml after 96 hrs
Fusarium oxysporum [18] = test: Antifungal activity against Fusarium oxysporum f. sp. lupini at 0.1 ug/ml after 144 hrs
Fusarium oxysporum [19] = test: Antifungal activity against Fusarium oxysporum f. sp. lupini at 0.1 ug/ml after 192 hrs
Fusarium oxysporum [20] = test: Antifungal activity against Fusarium oxysporum f. sp. lupini at 0.1 ug/ml after 192 hrs relative to control; conditions: read-out: GI

CCCCOCCOCCN/C=C1\C(=O)C(O)=C(C(C)C)c2cc(C)c(-c3c(C)cc4c(c3O)/C(=C/NCCOCCOCCCC)C(=O)C(O)=C4C(C)C)c(O)c21
Radial growth inhibition of fungi (Ā) (mm) (Fusarium oxysporum [1]): 13.5 mm | Radial growth inhibition of fungi (Ā) (mm) (Fusarium oxysporum [2]): 23.63 mm | Radial growth inhibition of fungi (Ā) (mm) (Fusarium oxysporum [3]): 33.25 mm | Radial growth inhibition of fungi (Ā) (mm) (Fusarium oxysporum [4]): 43.63 mm | inhibition of growth at 20 µg/mL (Fusarium oxysporum [5]): 26.4% | Radial growth inhibition of fungi (Ā) (mm) (Fusarium oxysporum [6]): 14.25 mm | Radial growth inhibition of fungi (Ā) (mm) (Fusarium oxysporum [7]): 23.5 mm | Radial growth inhibition of fungi (Ā) (mm) (Fusarium oxysporum [8]): 33.88 mm | Radial growth inhibition of fungi (Ā) (mm) (Fusarium oxysporum [9]): 44 mm | inhibition of growth at 1 µg/mL (Fusarium oxysporum [10]): 25.7% | Radial growth inhibition of fungi (Ā) (mm) (Fusarium oxysporum [11]): 15.13 mm | Radial growth inhibition of fungi (Ā) (mm) (Fusarium oxysporum [12]): 24.63 mm | Radial growth inhibition of fungi (Ā) (mm) (Fusarium oxysporum [13]): 34.75 mm | Radial growth inhibition of fungi (Ā) (mm) (Fusarium oxysporum [14]): 45.13 mm | inhibition of growth at 0.5 µg/mL (Fusarium oxysporum [15]): 23.8% | Radial growth inhibition of fungi (Ā) (mm) (Fusarium oxysporum [16]): 16.38 mm | Radial growth inhibition of fungi (Ā) (mm) (Fusarium oxysporum [17]): 25.63 mm | Radial growth inhibition of fungi (Ā) (mm) (Fusarium oxysporum [18]): 36.75 mm | Radial growth inhibition of fungi (Ā) (mm) (Fusarium oxysporum [19]): 49.25 mm | inhibition of growth at 0.1 µg/mL (Fusarium oxysporum [20]): 16.9%
